{
  "source": "patent US6346633B1",
  "about": "“Anti-tumuor agents” (AstraZeneca AB, priority 1998, dated 2002)",
  "key": {"[1]": {"system": "T18 murine breast cancer cells", "assay": "Test (b): growth inhibition of T18 cells in culture under oxic conditions (MTT endpoint)", "format": "cell-based", "conditions": "Mus musculus, 2 hours treatment, 90% air and 10% CO2, grown on for 6 days", "description": "(b) An in vitro assay which determines the ability of a test compound to inhibit the growth of T18 murine breast cancer cells in cell culture under oxic conditions. The cells were grown in monolayer in 96 well plates and treated with compounds for 2 hours under an atmosphere of 90% air and 10% CO2. The cells were then grown on for 6 days at which time the extent of proliferation was assessed using a 3-(4,5-dimethylthiazol-2-yl)-2,5-diphenyltetrazolium bromide (MTT) endpoint. The test is similar to that described in J. Immunological Methods, 1983, 65, 55-63. The detailed methodology was as follows.\nT18 murine breast tumour cells (derived from a spontaneous mammary tumour in the Balb/c mouse colony at Zeneca Pharmaceuticals, Mereside, Macclesfield, UK) were harvested from an exponentially growing monolayer culture. The cells were counted, diluted in RPMI 1640 culture medium (Gibco BRL, Life Technologies, Paisley, UK; supplemented with 15% foetal calf serum, glutamine, pyruvate, penicillin and streptomycin), and transferred to 96 well plates at 500 cells per 50 μl per well. […] The supernatant culture medium containing excess MTT was removed and DMSO (100 μl) was added to solubilise the formazan, the concentration of which was measured by determining the optical density at 540 nm. […]"}, "[2]": {"system": "spheroidal aggregates of EMT6 murine breast cancer cells", "assay": "Test (c): growth inhibition of spheroidal aggregates of EMT6 cells in oxygenated culture medium", "format": "cell-based", "conditions": "Mus musculus, 2 hours treatment, stasis of spheroid growth during 2-3 weeks, read-out: stasis ED50", "description": "(c) An in vitro assay which determines the ability of a test compound to inhibit the growth in an oxygenated culture medium of spheroidal aggregates (˜400 microns in diameter) of EMT6 murine breast cancer cells. As the oxygen diffusion distance through tissue is approximately 120-150 microns, such spheroids have a chronically hypoxic central population of cells and a well oxygenated outer layer of cells. The multicellular spheroids were treated with test compounds for 2 hours as a well oxygenated suspension culture. The spheroids were subsequently washed free of test compound and selected spheroids were transferred to static culture so that the effect of treatment on volume growth could be measured. […]\nEMT6 murine breast cells (obtained from P. R. Twentyman, MRC Oncology and Radiotherapeutics Unit, Cambridge, UK) were harvested from exponentially growing monolayer cultures and approximately 1×10^6 cells were used to inoculate a 500 ml spinner culture vessel containing Eagles minimal essential medium (200 ml; supplemented with 10% foetal calf serum, glutamate, non-essential amino acids, penicillin and streptomycin). […] The area of each spheroid was measured using an image analyser and the 24-well plates were transferred to a CO2 incubator at 37° C. The spheroids were then re-measured every 2-3 days for up to 21 days, with fresh culture medium (250 μl) being added to each well every 3 days. […]"}, "[3]": {"system": "T18 murine breast tumours", "assay": "Test (d): in vivo growth delay of T18 tumours", "set-up": "species or system Balb/c mice", "conditions": "single dose of approximately 50 mg/kg intraperitoneally", "from_the_text": "(d) An in vivo assay in a group of Balb/c mice which determines the ability of a test compound to delay the growth of T18 murine breast tumours. The detailed methodology was as follows:\nT18 murine breast tumour tissue was routinely maintained by animal to animal passage. To prepare a batch of tumours for an experiment, tumour tissue was removed from several donor Balb/c mice and placed in saline. Outer tissue was removed and healthy looking regions of tumour were cut into approximately 1 mm pieces and implanted subcutaneously by trocar into the left flanks of anaesthetised female Balb/c mice. After 2-3 weeks, most of the implants had grown to approximately 8 mm in diameter. The animals were placed randomly into groups of 6-7, rejecting any with very large, or small, tumours. Each test compound was dissolved in DMSO and diluted with Cremophor EL followed by saline, to give a 1:1:3 mixture of DMSO, Cremophor EL and saline. Each test compound was administered by the intraperitoneal route as a single bolus dose (0.1 ml per 10 g body weight of each animal). Control animals received vehicle alone. All mice were weighed daily and the dimensions (length and width) of each tumour were measured every 2-3 days using vernier calipers. […] Growth curves were constructed and the effect of treatment was assessed using a growth delay endpoint."}},
  "data": [
    {"compound": "COCCC1=C(C)C(=O)C(C)=C(C(C)(C)CC(=O)Oc2ccc(N(CCCl)CCCl)cc2)C1=O", "note": "[Example 2, 4-[bis(2-chloroethyl)amino]phenyl 3-[2-(2-methoxyethyl)-3,5-dimethyl-1,4-benzoquinonyl]-3-methylbutyrate]", "values": [
      {"measurement": "IC50", "setting": "[1]", "value": 4.8, "unit": "µM"},
      {"measurement": "EC50", "setting": "[2]", "value": "~6", "unit": "µM"},
      {"measurement": "growth delay", "setting": "[3]", "value": "approximately 12 days"}
    ]}
  ]
}
